Common to all, as to assay: Kinase panel profiling at 1 µmol/L (MSA or IMAP), percentage inhibition
What all share (assay type): biochemical

For experiment [1], the target named is panel of 255 wild-type kinases (Homo sapiens, UniProt P53779). The following applies: read-out: %-inhibition at 1 µmol/L, JNK3.
In experiment [2] the target is T1, panel of 255 wild-type kinases (Homo sapiens, UniProt O15146).
T1 sequence (O15146 24-869): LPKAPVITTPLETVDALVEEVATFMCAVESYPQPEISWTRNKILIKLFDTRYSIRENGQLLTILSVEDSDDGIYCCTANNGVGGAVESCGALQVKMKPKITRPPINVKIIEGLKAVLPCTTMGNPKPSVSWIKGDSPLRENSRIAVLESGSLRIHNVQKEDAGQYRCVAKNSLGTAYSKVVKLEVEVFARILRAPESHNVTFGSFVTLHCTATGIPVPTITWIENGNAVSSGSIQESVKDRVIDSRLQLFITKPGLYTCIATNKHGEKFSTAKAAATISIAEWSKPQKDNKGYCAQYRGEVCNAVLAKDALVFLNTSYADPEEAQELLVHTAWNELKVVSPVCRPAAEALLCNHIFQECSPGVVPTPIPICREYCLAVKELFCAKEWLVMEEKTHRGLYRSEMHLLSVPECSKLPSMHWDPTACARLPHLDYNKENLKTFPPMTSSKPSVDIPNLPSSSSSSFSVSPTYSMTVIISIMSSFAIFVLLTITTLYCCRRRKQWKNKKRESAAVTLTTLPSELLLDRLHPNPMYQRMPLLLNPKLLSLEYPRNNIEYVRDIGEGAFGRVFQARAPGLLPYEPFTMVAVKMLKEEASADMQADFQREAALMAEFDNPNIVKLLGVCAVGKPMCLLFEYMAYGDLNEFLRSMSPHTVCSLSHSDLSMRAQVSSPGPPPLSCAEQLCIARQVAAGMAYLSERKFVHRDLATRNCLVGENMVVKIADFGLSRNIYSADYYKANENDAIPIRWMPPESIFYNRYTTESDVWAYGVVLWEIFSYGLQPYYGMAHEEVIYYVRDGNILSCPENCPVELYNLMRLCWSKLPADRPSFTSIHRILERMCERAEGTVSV
The following applies: read-out: %-inhibition, MUSK.

Experiment [3] concerns the target panel of 255 wild-type kinases (Homo sapiens, UniProt P09769). The following applies: read-out: %-inhibition at 1 µmol/L, FGR.
Experiment [4] addresses panel of 255 wild-type kinases (Homo sapiens, UniProt O96013). The following applies: read-out: %-inhibition, PAK4.
The target in experiment [5] is T2, panel of 255 wild-type kinases (Homo sapiens, UniProt O15530).
T2 sequence (O15530 1-556): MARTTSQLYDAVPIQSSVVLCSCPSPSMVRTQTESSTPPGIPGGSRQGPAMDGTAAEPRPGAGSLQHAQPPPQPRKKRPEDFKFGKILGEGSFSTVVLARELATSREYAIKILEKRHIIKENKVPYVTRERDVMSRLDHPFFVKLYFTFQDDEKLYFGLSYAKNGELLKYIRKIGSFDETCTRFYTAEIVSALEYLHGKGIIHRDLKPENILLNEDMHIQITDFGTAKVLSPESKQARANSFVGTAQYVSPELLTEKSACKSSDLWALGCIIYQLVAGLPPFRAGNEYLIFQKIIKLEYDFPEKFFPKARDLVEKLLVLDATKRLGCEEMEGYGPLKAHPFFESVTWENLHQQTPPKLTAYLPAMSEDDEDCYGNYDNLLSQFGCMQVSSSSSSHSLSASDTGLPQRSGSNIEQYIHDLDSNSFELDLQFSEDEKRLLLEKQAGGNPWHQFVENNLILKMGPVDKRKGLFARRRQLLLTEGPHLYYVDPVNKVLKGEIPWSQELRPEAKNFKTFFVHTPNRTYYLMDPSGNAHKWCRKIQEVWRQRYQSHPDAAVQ
The following applies: read-out: %-inhibition at 1 µmol/L, PDK1.

The target in experiment [6] is panel of 255 wild-type kinases (Homo sapiens, UniProt Q13555). The following applies: read-out: %-inhibition CaMK2γ.
Experiment [7] addresses T3, panel of 255 wild-type kinases (Homo sapiens, UniProt Q9NRM7).
T3 sequence (Q9NRM7 1-1088): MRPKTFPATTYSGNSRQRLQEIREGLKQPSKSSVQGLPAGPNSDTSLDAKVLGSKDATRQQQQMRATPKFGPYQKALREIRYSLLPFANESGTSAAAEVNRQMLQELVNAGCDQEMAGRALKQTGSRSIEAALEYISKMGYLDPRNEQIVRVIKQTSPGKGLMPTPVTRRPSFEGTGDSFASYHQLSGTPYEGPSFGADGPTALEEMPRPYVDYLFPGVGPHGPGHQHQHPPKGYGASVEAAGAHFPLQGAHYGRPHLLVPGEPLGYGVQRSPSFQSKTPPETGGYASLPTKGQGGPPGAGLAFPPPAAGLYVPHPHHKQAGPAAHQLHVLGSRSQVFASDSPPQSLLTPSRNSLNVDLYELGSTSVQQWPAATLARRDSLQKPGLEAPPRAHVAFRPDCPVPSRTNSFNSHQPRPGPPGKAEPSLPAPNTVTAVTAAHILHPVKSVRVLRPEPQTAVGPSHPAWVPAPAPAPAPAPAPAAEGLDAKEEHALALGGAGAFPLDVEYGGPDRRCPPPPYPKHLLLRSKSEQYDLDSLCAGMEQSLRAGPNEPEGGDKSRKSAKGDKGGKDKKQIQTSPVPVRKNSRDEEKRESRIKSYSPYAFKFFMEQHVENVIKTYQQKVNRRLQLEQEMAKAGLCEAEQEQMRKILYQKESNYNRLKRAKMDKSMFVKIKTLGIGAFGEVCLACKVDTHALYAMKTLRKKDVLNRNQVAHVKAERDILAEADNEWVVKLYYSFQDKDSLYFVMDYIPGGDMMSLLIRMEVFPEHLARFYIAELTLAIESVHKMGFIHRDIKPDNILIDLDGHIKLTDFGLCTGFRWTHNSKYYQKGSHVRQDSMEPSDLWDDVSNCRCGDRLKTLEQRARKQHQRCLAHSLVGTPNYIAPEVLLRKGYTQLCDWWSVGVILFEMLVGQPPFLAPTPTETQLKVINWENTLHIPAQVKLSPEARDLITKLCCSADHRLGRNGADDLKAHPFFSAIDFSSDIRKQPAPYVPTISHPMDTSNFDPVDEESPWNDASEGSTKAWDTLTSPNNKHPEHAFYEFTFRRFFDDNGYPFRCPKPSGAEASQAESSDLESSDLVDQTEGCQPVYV
The following applies: read-out: %-inhibition at 1 µmol/L, LATS2.

Setting [8] is: kinase JNK3, 1 µmol/L single concentration.
Setting [9] is: MUSK, 1 µmol/L single concentration.
Setting [10] is: kinase FGR, 1 µmol/L single concentration.
Where [11] appears, read: PAK4, 1 µmol/L single concentration.
[12] abbreviates: kinase PDK1, 1 µmol/L single concentration.
Setting [13] is: CaMK2γ kinase assay, 1 µmol/L single concentration.
The mark [14] stands for this setting: kinase LATS2, 1 µmol/L single concentration.

Molecules are shown by their SMILES. Where two headings read alike, the source gives them in different places.

Turning to `Cc1nc(NC(=O)N2CCC[C@H]2C(N)=O)sc1-c1ccnc(C(C)(C)C(F)(F)F)c1` [alpelisib], the inhibition at 1 µM was -12% in experiment [1] (setting [8]); -8% in experiment [2] (setting [9]); 2% in experiment [3] (setting [10]); 0.0966% in experiment [4] (setting [11]); -0.422% in experiment [5] (setting [12]); 0.455% in experiment [6] (setting [13]). For the same compound, the inhibition at 1 µM in experiment [7] (setting [14]) is -1%.
In the case of `Cn1cc(-c2cc3c(N4CCN(c5ncc([C@@](C)(N)c6ccc(F)cc6)cn5)CC4)ncnn3c2)cn1` [avapritinib], the inhibition at 1 µM in experiment [1] (setting [8]) is 2.14%; in experiment [2] (setting [9]), 63%; in experiment [3] (setting [10]), 66%; in experiment [4] (setting [11]), 8%; in experiment [5] (setting [12]) it was 6.57%; in experiment [6] (setting [13]), -4%. For the same compound, the inhibition at 1 µM in experiment [7] (setting [14]) is 1.47%.
For the compound `Cn1cnc2c(F)c(Nc3ccc(Br)cc3F)c(C(=O)NOCCO)cc21` [binimetinib], the inhibition at 1 µM in experiment [1] (setting [8]) was 7%; in experiment [2] (setting [9]) it was -4.46%; in experiment [3] (setting [10]), 0.0227%; in experiment [4] (setting [11]), -2.71%; in experiment [5] (setting [12]), 0.386%; in experiment [6] (setting [13]), -3.65%. In addition, the inhibition at 1 µM in experiment [7] (setting [14]) was -3%.
Take `CNC(=O)c1ccc(-c2cnc3ncc(Cc4ccc5ncccc5c4)n3n2)cc1F` [capmatinib]: the inhibition at 1 µM is 5% in experiment [1]; 1.33% in experiment [2]; -1.79% in experiment [3]; 1% in experiment [4]; 4% in experiment [5]; -1.68% in experiment [6]. The inhibition at 1 µM in experiment [7] was -7%.
As for `COc1cc2ncnc(Nc3ccc(F)c(Cl)c3)c2cc1NC(=O)/C=C/CN1CCCCC1` [dacomitinib], the inhibition at 1 µM is 0.338% in experiment [1] (setting [8]); 22% in experiment [2] (setting [9]); 58% in experiment [3] (setting [10]); -3.66% in experiment [4] (setting [11]); -7% in experiment [5] (setting [12]); 2.37% in experiment [6] (setting [13]). Besides, the inhibition at 1 µM in experiment [7] (setting [14]) turned out to be 11%.
With `C[C@H](Nc1ncnc2nc[nH]c12)c1cc2cccc(Cl)c2c(=O)n1-c1ccccc1` [duvelisib], the inhibition at 1 µM in experiment [1] (setting [8]) was -10%; in experiment [2] (setting [9]), -4.45%; in experiment [3] (setting [10]), 3.24%; in experiment [4] (setting [11]), 0.277%; in experiment [5] (setting [12]), 2.42%; in experiment [6] (setting [13]), 0.463%. The inhibition at 1 µM in experiment [7] (setting [14]) is 8%.
Turning to `COC(=O)N[C@@H](C)CNc1nccc(-c2cn(C(C)C)nc2-c2cc(Cl)cc(NS(C)(=O)=O)c2F)n1` [encorafenib], the inhibition at 1 µM in experiment [1] (setting [8]) was 59%; in experiment [2] (setting [9]), -1.72%; in experiment [3] (setting [10]) it was 1.37%; in experiment [4] (setting [11]), -2.13%; in experiment [5] (setting [12]) it was -2.17%; in experiment [6] (setting [13]), -3.25%. Besides, in experiment [7] (setting [14]), the inhibition at 1 µM turned out to be 3.49%.
As to `CN1CCN(c2ccc(C(=O)Nc3n[nH]c4ccc(Cc5cc(F)cc(F)c5)cc34)c(NC3CCOCC3)c2)CC1` [entrectinib], the inhibition at 1 µM in experiment [1] (setting [8]) is -1.69%; in experiment [2] (setting [9]), 100%; in experiment [3] (setting [10]), 95%; in experiment [5] (setting [12]), 0.207%; in experiment [6] (setting [13]), 17%; in experiment [7] (setting [14]) it was 18%.
Regarding `CCc1nc(C(N)=O)c(Nc2ccc(N3CCC(N4CCN(C)CC4)CC3)c(OC)c2)nc1NC1CCOCC1` [gilteritinib], the inhibition at 1 µM was 52% in experiment [1] (setting [8]); 99% in experiment [2] (setting [9]); 96% in experiment [3] (setting [10]); 74% in experiment [4] (setting [11]); -1.87% in experiment [5] (setting [12]); 62% in experiment [6] (setting [13]). In addition, the inhibition at 1 µM in experiment [7] (setting [14]) came to 44%.
In the case of `CCN1CCN(c2ccc(Nc3cc(N(C)C(=O)Nc4c(Cl)c(OC)cc(OC)c4Cl)ncn3)cc2)CC1` [infigratinib], the inhibition at 1 µM in experiment [1] (setting [8]) is 4%; in experiment [2] (setting [9]) it was 24%; in experiment [3] (setting [10]) it was 46%; in experiment [4] (setting [11]), 6%; in experiment [5] (setting [12]) it was 1.36%; in experiment [6] (setting [13]), -3.37%. In experiment [7] (setting [14]), the inhibition at 1 µM is -3.67%.
Consider `O=C(Nc1cnn2ccc(N3CCC[C@@H]3c3cc(F)ccc3F)nc12)N1CC[C@H](O)C1` [larotrectinib], for which the inhibition at 1 µM in experiment [1] (setting [8]) is -7%; in experiment [2] (setting [9]), 32%; in experiment [3] (setting [10]), 2.55%; in experiment [4] (setting [11]), -4.61%; in experiment [5] (setting [12]), 2.15%; in experiment [6] (setting [13]) it was -0.126%. For the same compound, the inhibition at 1 µM in experiment [7] (setting [14]) was -3%.
For `C[C@H]1Oc2cc(cnc2N)-c2c(nn(C)c2C#N)CN(C)C(=O)c2ccc(F)cc21` [lorlatinib], the inhibition at 1 µM in experiment [1] (setting [8]) is -8.55%; in experiment [2] (setting [9]), 47%; in experiment [3] (setting [10]), 22%; in experiment [4] (setting [11]), 1.84%; in experiment [5] (setting [12]), 0.602%; in experiment [6] (setting [13]), 10%. For the same compound, the inhibition at 1 µM in experiment [7] (setting [14]) turned out to be 6%.

The values are drawn from paper PMC9516332 (Frontiers in Oncology, 2022).
